Legend:
CSF1R = CSF1R (Homo sapiens, UniProt P07333); assay: Cellular CSF1R inhibition ELISA (p-CSF1R, M-CSF-induced) using THP-1 cells; assay type: cell-based; parameters: THP-1 cells act as a model for human monocytes; endogenous in cells; host or cells: THP-1
Method in brief: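 THP-1 cells (2×10^5/well, RPMI/10% FBS) were treated with compound, 10 doses in 3-fold steps, for 24 h at 37 °C in 0.2% DMSO final. They were then stimulated 5 min with human M-CSF (10 ng/ml final) and lysed. p-CSF1R was read by sandwich ELISA (HRP/TMB), with a sigmoidal dose-response fit.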

CSF1R (M-NFS-60 cells) = assay: Cell Titer-Glo viability assay using M-NFS-60 cells; assay type: cell-based; conditions: Mus musculus, read-out: Cellular CSF1R activity by M-NFS-60 viability assay (IC50 activity range)
Method in brief: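 M-NFS-60 cells grown with 62 ng/ml recombinant human M-CSF, seeded at 2×10^5 cells/well and incubated at 37 °C/5% CO2. Compounds given as 3-fold serial dilutions (10 doses); viability read by CellTiter-Glo luminescence, sigmoidal dose-response fit.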

CSF1R, sequence (P07333 20-972): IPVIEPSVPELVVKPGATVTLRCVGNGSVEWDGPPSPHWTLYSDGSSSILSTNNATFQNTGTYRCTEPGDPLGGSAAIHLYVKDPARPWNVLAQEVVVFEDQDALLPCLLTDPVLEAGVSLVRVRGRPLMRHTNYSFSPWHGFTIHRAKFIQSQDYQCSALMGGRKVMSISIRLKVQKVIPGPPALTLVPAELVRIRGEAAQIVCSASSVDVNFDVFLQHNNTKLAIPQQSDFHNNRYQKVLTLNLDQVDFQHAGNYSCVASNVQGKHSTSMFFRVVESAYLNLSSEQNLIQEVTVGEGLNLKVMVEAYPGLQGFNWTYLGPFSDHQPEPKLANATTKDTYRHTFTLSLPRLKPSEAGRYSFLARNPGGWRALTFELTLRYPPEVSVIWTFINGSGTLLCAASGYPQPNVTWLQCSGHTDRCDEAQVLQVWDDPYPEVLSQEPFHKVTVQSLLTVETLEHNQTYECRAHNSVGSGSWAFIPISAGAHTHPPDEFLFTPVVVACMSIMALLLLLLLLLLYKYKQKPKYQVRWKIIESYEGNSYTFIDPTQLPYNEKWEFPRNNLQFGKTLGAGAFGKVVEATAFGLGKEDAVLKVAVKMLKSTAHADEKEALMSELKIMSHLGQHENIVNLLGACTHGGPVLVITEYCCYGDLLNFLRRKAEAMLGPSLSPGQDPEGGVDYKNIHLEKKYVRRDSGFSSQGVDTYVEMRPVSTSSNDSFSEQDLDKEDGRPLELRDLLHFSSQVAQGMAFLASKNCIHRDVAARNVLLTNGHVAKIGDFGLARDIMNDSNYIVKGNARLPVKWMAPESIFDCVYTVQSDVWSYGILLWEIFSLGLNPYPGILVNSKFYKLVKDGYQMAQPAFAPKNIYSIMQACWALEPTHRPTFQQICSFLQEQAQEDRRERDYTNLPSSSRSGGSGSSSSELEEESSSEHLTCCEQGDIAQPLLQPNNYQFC

| Structure (SMILES) | IC50 (CSF1R) [nM] | IC50 (CSF1R (M-NFS-60 cells)) [nM] |
| --- | --- | --- |
| COc1cc2nccc(Oc3ccc(NC(=O)c4nn(CC(C)(F)F)cc4OCC(F)(F)F)nc3)c2cc1OC [Compound 64] | < 500 | 1000 to 10000 |
| COc1cc2nccc(Oc3ccc(NC(=O)c4nn(CCN)cc4OCC(F)(F)F)c(F)c3)c2cc1OC [Compound 75] | ≥ 1000 | 1000 to 10000 |
| COc1cc2nccc(Oc3ccc(NC(=O)c4nn(CC(C)O)cc4OCC(F)(F)F)c(F)c3)c2cc1OC (centres unmarked) [Compound 76] | ≥ 1000 | 1000 to 10000 |
| COc1cc2nccc(Oc3ccc(NC(=O)c4nn(CCC(F)(F)F)cc4OCC4CCC4)nc3)c2cc1OC [Compound 166] | ≥ 1000 | 1000 to 10000 |
| CCCn1cc(OCC2CCC2)c(C(=O)Nc2ccc(Oc3ccnc4cc(OC)c(OC(F)(F)F)cc34)cn2)n1 [Compound 167] | ≥ 1000 | 1000 to 10000 |
| COCCOc1cn(C2CC2)nc1C(=O)Nc1ccc(Oc2ccnc3cc(OC)c(OC)cc23)nn1 [Compound 171] | ≥ 1000 | ≥ 10000 |
| COc1cc2nccc(Oc3ccc(NC(=O)c4nn(C5CC5)cc4OCC4CNC4)nn3)c2cc1OC [Compound 172] | ≥ 1000 | ≥ 10000 |
| COc1cc2nccc(Oc3ccc(NC(=O)c4nn(C5CC5)cc4OCCC(F)(F)F)nn3)c2cc1OC [Compound 173] | ≥ 1000 | 1000 to 10000 |
| COc1cc2nccc(Oc3ccc(NC(=O)c4nn(CC(C)O)cc4OCC4CN(C)C4)nc3)c2cc1OC (centres unmarked) [Compound 174] | ≥ 1000 | ≥ 10000 |
| COc1cc2nccc(Oc3ccc(NC(=O)c4nn(CC(C)O)cc4OCC(F)F)nc3)c2cc1OC (centres unmarked) [Compound 175] | < 500 | < 1000 |
| COc1cc2nccc(Oc3ccc(NC(=O)c4nc(CCC(F)(F)F)oc4CCC4CCC4)nc3)c2cc1OC [Compound 176] | ≥ 1000 | 1000 to 10000 |
| CCCn1cc(OCCN(C)C)c(C(=O)Nc2ccc(Oc3ccnc4cc(OC)c(OC)cc34)cn2)n1 [Compound 177] | ≥ 1000 | 1000 to 10000 |
| COc1cc2nccc(Oc3ccc(NC(=O)c4cc(C5CC5)cnc4OCC(F)(F)F)nc3)c2cc1OC [Compound 178] | < 500 | < 1000 |
| COc1cc2nccc(Oc3ccc(NC(=O)c4sc(C5CC5)cc4OCC(F)(F)F)nc3)c2cc1OC [Compound 179] | < 500 | < 1000 |

Second part, led by results:

| IC50 (CSF1R) [nM] | Structure (SMILES) | IC50 (CSF1R (M-NFS-60 cells)) [nM] |
| --- | --- | --- |
| 500 to 1000 | COc1cc2nccc(Oc3ccc(NC(=O)c4nn(CC(C)N)cc4OCC(F)(F)F)nc3)c2cc1OC (centres unmarked) [Compound 63] | 1000 to 10000 |
| < 500 | COc1cc2nccc(Oc3ccc(NC(=O)c4nn(CCOC5CCC5)cc4OCC(F)(F)F)nc3)c2cc1OC [Compound 65] | 1000 to 10000 |
| < 500 | COc1cc2nccc(Oc3ccc(NC(=O)c4nn(C5COC5)cc4OCC(F)(F)F)nc3)c2cc1OC [Compound 66] | 1000 to 10000 |
| < 500 | COc1cc2nccc(Oc3ccc(NC(=O)c4nn(CCO)cc4OCC(F)(F)F)nc3)c2cc1OC [Compound 67] | 1000 to 10000 |
| < 500 | COc1cc2nccc(Oc3ccc(NC(=O)c4nn(CCCN)cc4OCC(F)(F)F)nc3)c2cc1OC [Compound 68] | 1000 to 10000 |
| < 500 | COc1cc2nccc(Oc3ccc(NC(=O)c4nn(C5CCCCC5)cc4OCC(F)(F)F)nc3)c2cc1OC [Compound 69] | 1000 to 10000 |
| 500 to 1000 | COc1cc2nccc(Oc3ccc(NC(=O)c4nn(C5CCNC5)cc4OCC(F)(F)F)nc3)c2cc1OC (centres unmarked) [Compound 70] | 1000 to 10000 |
| < 500 | COc1cc2nccc(Oc3ccc(NC(=O)c4nn(CC5CCCC5)cc4OCC(F)(F)F)nc3)c2cc1OC [Compound 71] | 1000 to 10000 |
| < 500 | COc1cc2nccc(Oc3ccc(NC(=O)c4nn(CC5CCNC5)cc4OCC(F)(F)F)nc3)c2cc1OC (centres unmarked) [Compound 72] | 1000 to 10000 |
| < 500 | COc1cc2nccc(Oc3ccc(NC(=O)c4nn(CC5CNC5)cc4OCC(F)(F)F)nc3)c2cc1OC [Compound 73] | 1000 to 10000 |
| ≥ 1000 | COc1cc2nccc(Oc3ccc(NC(=O)c4nn(C5CCNC5)cc4OCC(F)(F)F)c(F)c3)c2cc1OC (centres unmarked) [Compound 74] | 1000 to 10000 |
| < 500 | COc1cc2nccc(Oc3ccc(NC(=O)c4nn(CCNC5CC5)cc4OCC(F)(F)F)nc3)c2cc1OC [Compound 168] | < 1000 |
| < 500 | COc1cc2nccc(Oc3ccc(NC(=O)c4nn(CC5CCN(C)C5)cc4OCC(F)(F)F)nc3)c2cc1OC (centres unmarked) [Compound 169] | < 1000 |
| < 500 | COc1cc2nccc(Oc3ccc(NC(=O)c4nn(C5CC5)cc4OCCC(F)(F)F)nc3)c2cc1OC [Compound 170] | < 1000 |

From patent US12162858B2, “Quinoline derivatives as inhibitors of AXL/MER RTK and CSF1R” (QURIENT CO., LTD., priority 2018, dated 2024)
